According to patent publication US8940742B2, “Heterocyclic compounds and uses thereof” (Infinity Pharmaceuticals, Inc., priority 2012, dated 2015):

Experiments:
[1] = target: T1, PI3K α (Homo sapiens, UniProt P42336); assay: PI3-Kinase Promega ADP-Glo Max assay; format: biochemical; settings: 20 nM kinase, 3 mM ATP, 500 uM diC8-PtdInsP
T1 construct: purchased Millipore
Experimental: (§1) Promega ADP-Glo Max assay kit (Cat. No. V7002) was utilized to determine IC50 values for α, β, δ and γ isoforms of human Class I PI3 kinases (Millipore). Samples of kinase (20 nM α or δ, 40 nM β or γ isoform) were incubated with compound for 15 minutes at room temperature in reaction buffer (15 mM HEPES pH 7.4, 20 mM NaCl, 1 mM EGTA, 0.02% Tween 20, 10 mM MgCl2, 0.2 mg/mL bovine-γ-globulins) followed by addition of ATP/diC8-PtdInsP mixture to give final concentrations of 3 mM ATP and 500 uM diC8-PtdInsP. Reactions were incubated at room temperature for 2 hours followed by addition of 25 uL of stop solution. After a 40-minute incubation at room temperature, 50 uL of Promega detection mix was added followed by incubation for 1 hour at room temperature. Plates were then read on Envision plate reader in luminescence mode. Data was converted to % inhibition using the following equation below:
(§2) [formula] where S is the sample luminescence, Pos is a positive control without added PI3K, Neg is the negative control without added compound. Data was then plotted as % inhibition vs compound concentration. Data fit to 4 parameter logistic equation to determine IC50 values: […]
(§3) Certain compounds provided herein were tested in PI3-Kinase Promega Assay using procedures as described above to determine IC50 values for α, β, δ and/or γ isoforms.

[2] = target: T2, PI3K β (Homo sapiens, UniProt P42338); assay: PI3-Kinase Promega ADP-Glo Max assay; format: biochemical; settings: 40 nM kinase, 3 mM ATP, 500 uM diC8-PtdInsP
T2 construct: purchased Millipore
Experimental: as §1, §2, §3

[3] = target: T3, PI3K δ (Homo sapiens, UniProt O00329); assay: PI3-Kinase Promega ADP-Glo Max assay; format: biochemical; settings: 20 nM kinase, 3 mM ATP, 500 uM diC8-PtdInsP
T3 construct: purchased Millipore
Experimental: as §1, §2, §3

[4] = target: T4, PI3K γ (Homo sapiens, UniProt P48736); assay: PI3-Kinase Promega ADP-Glo Max assay; format: biochemical; settings: 40 nM kinase, 3 mM ATP, 500 uM diC8-PtdInsP
T4 construct: purchased Millipore
Experimental: Promega ADP-Glo Max assay kit (Cat. No. V7002) was utilized to determine IC50 values for α, β, δ and γ isoforms of human Class I PI3 kinases (Millipore). […] Reactions were incubated at room temperature for 2 hours followed by addition of 25 uL of stop solution. After a 40-minute incubation at room temperature, 50 uL of Promega detection mix was added followed by incubation for 1 hour at room temperature. Plates were then read on Envision plate reader in luminescence mode. Data was converted to % inhibition using the following equation below:
[formula] where S is the sample luminescence, Pos is a positive control without added PI3K, Neg is the negative control without added compound. Data was then plotted as % inhibition vs compound concentration.
as §3

[5] = target: T5, Raw264.7 p110 γ (Mus musculus, UniProt Q9JHG7); assay: Raw264.7 p110 γ cellular assay (phospho-AKT); format: cell-based; settings: serum-starved RAW264.7 cells stimulated with C5a
T5 construct: reduction of phospho-AKT in stimulated RAW 264.7 cells; endogenous in cells; host or cells: RAW264.7 macrophages
Text: (b) PI3K-γ Selective Assay
Briefly, serum-starved PAW264.7 cells are stimulated with a known GPCR agonist C5a. […] Cells can be treated with test compounds prior to, simultaneously with, or subsequent to the stimulation by C5a. RAW 264.7 cells respond to the complement component fragment C5a through activation of the C5a receptor, and the C5a receptor activates macrophages and induces cell migration.

[6] = target: RAJI p110 δ (Homo sapiens, UniProt O00329); assay: RAJI p110 δ cellular assay (phospho-AKT);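 further: potency based on lowered phosphorylated AKT in RAJI cells, as a readout of PI3K-δ dependent B-cell receptor signaling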
Text: (a) PI3K-δ Selective Assay
Reduction of phospho-AKT is indicative of compounds that may inhibit B-cell proliferation and function in certain diseases.

T4 sequence (P48736 whole entry): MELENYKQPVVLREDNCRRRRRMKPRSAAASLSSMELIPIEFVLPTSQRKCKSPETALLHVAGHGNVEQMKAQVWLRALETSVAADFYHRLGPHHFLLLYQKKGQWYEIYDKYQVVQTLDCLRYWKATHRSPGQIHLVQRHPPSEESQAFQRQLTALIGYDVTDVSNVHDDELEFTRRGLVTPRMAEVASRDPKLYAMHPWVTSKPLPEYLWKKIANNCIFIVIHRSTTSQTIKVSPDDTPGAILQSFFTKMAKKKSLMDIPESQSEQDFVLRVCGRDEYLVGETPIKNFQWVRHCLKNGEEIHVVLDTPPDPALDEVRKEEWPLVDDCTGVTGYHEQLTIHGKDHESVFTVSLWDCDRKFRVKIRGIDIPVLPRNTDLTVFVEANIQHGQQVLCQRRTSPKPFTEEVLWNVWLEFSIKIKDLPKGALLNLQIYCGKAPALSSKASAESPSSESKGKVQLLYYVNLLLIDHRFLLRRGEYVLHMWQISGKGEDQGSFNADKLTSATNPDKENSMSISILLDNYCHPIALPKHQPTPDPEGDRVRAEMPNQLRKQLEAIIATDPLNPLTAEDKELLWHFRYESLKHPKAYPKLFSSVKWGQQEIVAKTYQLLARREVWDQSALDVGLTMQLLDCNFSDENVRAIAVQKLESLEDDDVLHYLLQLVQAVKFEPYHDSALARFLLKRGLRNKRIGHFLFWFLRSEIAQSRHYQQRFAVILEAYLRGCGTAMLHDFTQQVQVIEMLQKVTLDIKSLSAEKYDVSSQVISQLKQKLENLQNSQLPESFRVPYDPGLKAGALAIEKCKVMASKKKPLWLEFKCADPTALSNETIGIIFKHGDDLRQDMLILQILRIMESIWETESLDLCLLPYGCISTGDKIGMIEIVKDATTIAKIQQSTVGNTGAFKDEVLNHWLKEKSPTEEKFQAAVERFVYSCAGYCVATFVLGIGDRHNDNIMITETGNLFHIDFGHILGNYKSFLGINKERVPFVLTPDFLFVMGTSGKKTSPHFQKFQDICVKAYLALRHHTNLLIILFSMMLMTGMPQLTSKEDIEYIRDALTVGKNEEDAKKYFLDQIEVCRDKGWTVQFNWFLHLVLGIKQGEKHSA
T2 sequence (P42338 whole entry): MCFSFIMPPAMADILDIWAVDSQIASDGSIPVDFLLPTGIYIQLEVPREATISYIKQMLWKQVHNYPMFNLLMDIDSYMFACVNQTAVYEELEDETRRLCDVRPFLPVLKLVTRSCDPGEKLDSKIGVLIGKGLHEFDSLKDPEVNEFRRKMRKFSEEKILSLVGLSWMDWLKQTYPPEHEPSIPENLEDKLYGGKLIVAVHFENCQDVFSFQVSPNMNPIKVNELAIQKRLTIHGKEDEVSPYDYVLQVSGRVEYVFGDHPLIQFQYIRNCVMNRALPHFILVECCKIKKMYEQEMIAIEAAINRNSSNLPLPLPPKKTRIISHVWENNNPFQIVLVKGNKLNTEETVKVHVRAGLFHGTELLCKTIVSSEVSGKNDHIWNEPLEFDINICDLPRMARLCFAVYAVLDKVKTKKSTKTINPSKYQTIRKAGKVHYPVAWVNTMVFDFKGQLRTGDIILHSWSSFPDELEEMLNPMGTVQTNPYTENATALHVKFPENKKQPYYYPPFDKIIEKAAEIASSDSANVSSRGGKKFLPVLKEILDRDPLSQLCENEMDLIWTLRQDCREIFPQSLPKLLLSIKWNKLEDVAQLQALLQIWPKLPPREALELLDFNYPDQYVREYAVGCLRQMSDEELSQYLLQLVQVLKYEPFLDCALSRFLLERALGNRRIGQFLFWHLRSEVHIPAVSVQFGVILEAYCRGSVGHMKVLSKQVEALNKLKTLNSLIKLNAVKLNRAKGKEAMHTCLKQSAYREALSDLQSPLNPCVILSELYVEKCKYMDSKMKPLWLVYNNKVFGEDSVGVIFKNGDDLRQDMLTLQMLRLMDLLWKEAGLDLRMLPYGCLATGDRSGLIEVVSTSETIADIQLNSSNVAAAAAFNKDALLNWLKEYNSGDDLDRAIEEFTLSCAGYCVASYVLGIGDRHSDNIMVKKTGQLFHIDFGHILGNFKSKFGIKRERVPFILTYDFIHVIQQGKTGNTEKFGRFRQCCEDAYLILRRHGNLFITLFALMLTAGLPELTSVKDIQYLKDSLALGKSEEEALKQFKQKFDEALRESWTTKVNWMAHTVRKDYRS
T2 sequence (P27986 whole entry partner): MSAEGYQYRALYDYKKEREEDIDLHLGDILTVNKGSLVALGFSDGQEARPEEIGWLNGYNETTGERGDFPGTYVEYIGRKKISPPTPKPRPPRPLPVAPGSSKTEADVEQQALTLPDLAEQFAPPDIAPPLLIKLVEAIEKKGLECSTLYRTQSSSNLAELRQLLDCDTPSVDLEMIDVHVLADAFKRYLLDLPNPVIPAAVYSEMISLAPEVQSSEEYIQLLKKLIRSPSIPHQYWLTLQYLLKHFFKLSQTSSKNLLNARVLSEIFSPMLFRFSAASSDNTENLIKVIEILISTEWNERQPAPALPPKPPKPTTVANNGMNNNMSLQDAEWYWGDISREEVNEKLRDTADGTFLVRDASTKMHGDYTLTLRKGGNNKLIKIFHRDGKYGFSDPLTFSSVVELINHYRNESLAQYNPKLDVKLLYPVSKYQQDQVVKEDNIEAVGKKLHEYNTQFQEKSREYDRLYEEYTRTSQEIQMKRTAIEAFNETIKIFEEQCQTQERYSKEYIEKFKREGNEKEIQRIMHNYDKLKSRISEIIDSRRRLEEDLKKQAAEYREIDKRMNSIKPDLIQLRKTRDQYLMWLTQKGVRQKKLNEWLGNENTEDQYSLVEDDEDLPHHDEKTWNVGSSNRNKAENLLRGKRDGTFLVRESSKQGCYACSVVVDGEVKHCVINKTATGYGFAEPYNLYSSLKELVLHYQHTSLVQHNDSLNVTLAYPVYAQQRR
T5 sequence (Q9JHG7 whole entry): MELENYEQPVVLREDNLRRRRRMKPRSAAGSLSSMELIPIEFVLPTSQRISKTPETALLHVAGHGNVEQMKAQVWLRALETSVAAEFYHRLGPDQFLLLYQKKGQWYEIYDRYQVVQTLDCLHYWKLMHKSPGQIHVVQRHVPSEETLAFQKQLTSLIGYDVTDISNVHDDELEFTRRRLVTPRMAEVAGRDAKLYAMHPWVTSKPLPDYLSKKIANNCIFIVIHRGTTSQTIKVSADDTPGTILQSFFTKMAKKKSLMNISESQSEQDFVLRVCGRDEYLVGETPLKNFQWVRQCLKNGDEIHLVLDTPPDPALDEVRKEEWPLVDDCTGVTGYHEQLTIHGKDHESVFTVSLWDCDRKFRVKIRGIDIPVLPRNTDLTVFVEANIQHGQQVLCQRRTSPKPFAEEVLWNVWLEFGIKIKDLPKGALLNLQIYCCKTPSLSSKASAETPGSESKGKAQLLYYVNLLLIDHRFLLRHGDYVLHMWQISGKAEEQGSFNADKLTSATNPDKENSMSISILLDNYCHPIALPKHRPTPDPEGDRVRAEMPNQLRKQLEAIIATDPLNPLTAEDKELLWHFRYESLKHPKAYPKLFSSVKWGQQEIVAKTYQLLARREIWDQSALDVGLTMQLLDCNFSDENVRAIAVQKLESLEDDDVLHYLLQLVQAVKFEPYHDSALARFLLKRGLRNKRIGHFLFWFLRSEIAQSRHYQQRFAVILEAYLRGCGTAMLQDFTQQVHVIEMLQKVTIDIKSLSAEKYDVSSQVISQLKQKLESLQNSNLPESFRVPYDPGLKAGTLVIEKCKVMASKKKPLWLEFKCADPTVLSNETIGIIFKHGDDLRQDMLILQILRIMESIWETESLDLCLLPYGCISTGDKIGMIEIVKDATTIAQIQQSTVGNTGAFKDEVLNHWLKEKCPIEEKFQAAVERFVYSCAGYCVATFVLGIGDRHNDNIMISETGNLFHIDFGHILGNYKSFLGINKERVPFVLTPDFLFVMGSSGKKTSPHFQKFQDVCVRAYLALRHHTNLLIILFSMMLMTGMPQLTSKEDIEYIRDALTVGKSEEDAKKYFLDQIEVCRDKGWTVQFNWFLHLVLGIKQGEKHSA
T3 sequence (O00329 whole entry): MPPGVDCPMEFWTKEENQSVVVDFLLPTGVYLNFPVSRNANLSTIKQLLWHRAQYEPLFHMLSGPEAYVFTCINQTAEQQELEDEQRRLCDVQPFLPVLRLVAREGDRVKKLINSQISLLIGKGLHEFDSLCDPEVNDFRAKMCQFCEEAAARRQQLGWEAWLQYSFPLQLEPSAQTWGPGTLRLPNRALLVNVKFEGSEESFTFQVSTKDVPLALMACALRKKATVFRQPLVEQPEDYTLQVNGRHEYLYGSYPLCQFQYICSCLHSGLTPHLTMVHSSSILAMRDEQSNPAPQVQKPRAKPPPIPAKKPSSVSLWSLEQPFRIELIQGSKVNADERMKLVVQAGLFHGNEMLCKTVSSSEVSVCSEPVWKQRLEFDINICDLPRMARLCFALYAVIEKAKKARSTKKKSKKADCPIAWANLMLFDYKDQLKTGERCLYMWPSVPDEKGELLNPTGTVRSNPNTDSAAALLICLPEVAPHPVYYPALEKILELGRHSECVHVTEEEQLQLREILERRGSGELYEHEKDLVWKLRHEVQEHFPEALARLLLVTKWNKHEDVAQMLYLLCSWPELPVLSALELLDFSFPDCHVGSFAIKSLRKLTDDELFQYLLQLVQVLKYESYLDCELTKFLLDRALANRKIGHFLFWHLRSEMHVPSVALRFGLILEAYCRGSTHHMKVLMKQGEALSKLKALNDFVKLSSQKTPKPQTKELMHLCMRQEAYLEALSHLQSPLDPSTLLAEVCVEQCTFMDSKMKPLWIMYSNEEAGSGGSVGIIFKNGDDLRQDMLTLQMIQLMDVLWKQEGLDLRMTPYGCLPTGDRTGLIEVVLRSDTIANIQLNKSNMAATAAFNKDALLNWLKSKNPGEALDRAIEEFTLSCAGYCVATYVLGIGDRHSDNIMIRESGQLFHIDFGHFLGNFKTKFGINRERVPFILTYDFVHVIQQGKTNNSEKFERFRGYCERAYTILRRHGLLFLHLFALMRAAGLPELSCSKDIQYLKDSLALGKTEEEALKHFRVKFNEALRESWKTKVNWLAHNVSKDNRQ
T3 sequence (P27986 whole entry partner): as the sequence (P27986 whole entry partner) above

| Structure (SMILES) | IC50 [1] [nM] | IC50 [2] [nM] | IC50 [3] [nM] | IC50 [4] [nM] | IC50 [5] [nM] | IC50 [6] [nM] |
| --- | --- | --- | --- | --- | --- | --- |
| COc1cc(-c2cccc3cc([C@H](C)NC(=O)c4c(N)ncc5cccnc45)n(-c4ccccc4)c(=O)c23)ccn1 [Compound 140] | 1000 to 10000 | > 10000 | 100 to 1000 | < 100 | < 100 | < 100 |
| COc1cc(-c2cccc3cc([C@H](C)NC(=O)c4c(N)nn5ccc(C)nc45)n(-c4ccccc4)c(=O)c23)ccn1 [Compound 186] | 1000 to 10000 | > 10000 | 1000 to 10000 | 100 to 1000 | < 100 | < 100 |
| C[C@H](NC(=O)c1c(N)nn2cccnc12)c1cc2cccc(C#CCNS(C)(=O)=O)c2c(=O)n1-c1ccccc1 [Compound 187] | 1000 to 10000 | 1000 to 10000 | 1000 to 10000 | 100 to 1000 | < 100 | 100 to 1000 |
| C[C@H](NC(=O)c1c(N)ncc2cccnc12)c1cc2cccc(Cl)c2c(=O)n1-c1ccccc1 [Compound 137] | 1000 to 10000 | 100 to 1000 | 100 to 1000 | 100 to 1000 | < 100 | < 100 |
| COc1cc(-c2cccc3cc([C@H](C)NC(=O)c4c(N)nn5cccnc45)n(-c4cccc(F)c4)c(=O)c23)ccn1 [Compound 189] | 1000 to 10000 | > 10000 | 1000 to 10000 | 100 to 1000 | < 100 | 100 to 1000 |
| Cc1cccc2cc([C@H](C)NC(=O)c3c(N)nn4cccnc34)n(-c3ccccc3)c(=O)c12 [Compound 123] | 1000 to 10000 | 1000 to 10000 | 1000 to 10000 | 100 to 1000 | < 100 | < 100 |
| C[C@H](NC(=O)c1c(N)nn2cccnc12)c1cc2cccc(Cl)c2c(=O)n1-c1cccc(F)c1 [Compound 78] | 1000 to 10000 | 100 to 1000 | 100 to 1000 | < 100 | < 100 | < 100 |
| CC(NC(=O)c1c(N)nn2cccnc12)c1cc2cccc(Cl)c2nc1-c1ccccc1 (stereo not drawn) [Compound 218] | > 10000 | 1000 to 10000 | 1000 to 10000 | 1000 to 10000 | < 100 | < 100 |
| C=CC(=O)NCCC#Cc1cccc2cc([C@H](C)NC(=O)c3c(N)nn4cccnc34)n(-c3ccccc3)c(=O)c12 [Compound 160] | 1000 to 10000 | 1000 to 10000 | 1000 to 10000 | 100 to 1000 | < 100 | < 100 |
| CC(C)Oc1ccc(-c2cnc(N)c(C(=O)N[C@@H](C)c3cc4cccc(Cl)c4c(=O)n3-c3ccccc3)n2)cc1F [Compound 87] | 1000 to 10000 | > 10000 | 1000 to 10000 | 100 to 1000 | 100 to 1000 | 1000 to 10000 |
| COc1cc(-c2cccc3cc([C@H](C)NC(=O)c4c(N)nn5cccnc45)n(-c4ccccc4)c(=O)c23)ccn1 [Compound 116] | 1000 to 10000 | 1000 to 10000 | 1000 to 10000 | 100 to 1000 | < 100 | < 100 |
| C[C@H](NC(=O)c1c(N)nn2cccnc12)c1cc2cccc(Cl)c2c(=O)n1C [Compound 74] | 1000 to 10000 | < 100 | 100 to 1000 | 100 to 1000 | < 100 | < 100 |
| C[C@H](NC(=O)c1nc(-c2cscn2)cnc1N)c1cc2cccc(Cl)c2c(=O)n1-c1ccccc1 [Compound 112] | 1000 to 10000 | 1000 to 10000 | > 10000 | 100 to 1000 | < 100 | 100 to 1000 |
| C[C@H](NC(=O)c1nc(-c2cn[nH]c2)cnc1N)c1cc2cccc(Cl)c2c(=O)n1-c1ccccc1 [Compound 110] | 1000 to 10000 | 1000 to 10000 | 1000 to 10000 | 100 to 1000 | < 100 | < 100 |
| C[C@H](NC(=O)c1nccnc1N)c1cc2cccc(-c3cnn(C)c3)c2c(=O)n1-c1ccccc1 [Compound 54, (S)-3-amino-N-(1-(8-(1-methyl-1H-pyrazol-4-yl)-1-oxo-2-phenyl-1,2-dihydroisoquinolin-3-yl)ethyl)pyrazine-2-carboxamide] | > 10000 | > 10000 | 1000 to 10000 | 100 to 1000 | 100 to 1000 | < 100 |
| C[C@H](NC(=O)c1nccnc1N)c1cc2cccc(Cl)c2c(=O)n1-c1ccc(F)cc1 [Compound 19] | > 10000 | 100 to 1000 | 100 to 1000 | 100 to 1000 | < 100 | < 100 |
| C[C@H](NC(=O)c1c(N)nn2cccnc12)c1cc2cccc(Cl)c2c(=O)n1C1CC1 [Compound 77] | 100 to 1000 | < 100 | 100 to 1000 | 100 to 1000 | < 100 | < 100 |
| C[C@H](NC(=O)c1c(N)nn2cccnc12)c1cc2cccc(Cl)c2c(=O)n1C1CCCCC1 [Compound 196] | 1000 to 10000 | 1000 to 10000 | 1000 to 10000 | 1000 to 10000 | < 100 | < 100 |
| C[C@H](NC(=O)c1nc(-c2cccc(NS(C)(=O)=O)c2)cnc1N)c1cc2cccc(Cl)c2c(=O)n1-c1ccccc1 [Compound 85] | 1000 to 10000 | 100 to 1000 | 1000 to 10000 | < 100 | < 100 | < 100 |
| C[C@H](NC(=O)c1nc(-c2cccc(S(N)(=O)=O)c2)cnc1N)c1cc2cccc(Cl)c2c(=O)n1-c1ccccc1 [Compound 108] | 1000 to 10000 | 100 to 1000 | 1000 to 10000 | 100 to 1000 | < 100 | 100 to 1000 |
| C=CCn1c([C@H](C)NC(=O)c2c(N)nn3cccnc23)cc2cccc(Cl)c2c1=O [Compound 235] | 1000 to 10000 | < 100 | 100 to 1000 | 100 to 1000 | < 100 | < 100 |
